# Test results from article PMC3076384, “A Dopa Decarboxylase Modulating the Immune Response of Scallop Chlamys farreri” (PLoS ONE, 2011).
# Biological target: T1, rCfDDC (recombinant CfDDC, dopa decarboxylase of Chlamys farreri) (Azumapecten farreri, UniProt F8QPW5)
# T1 construct: gene DDC; ~65 kDa on gel
# T1 sequence (F8QPW5 1-560): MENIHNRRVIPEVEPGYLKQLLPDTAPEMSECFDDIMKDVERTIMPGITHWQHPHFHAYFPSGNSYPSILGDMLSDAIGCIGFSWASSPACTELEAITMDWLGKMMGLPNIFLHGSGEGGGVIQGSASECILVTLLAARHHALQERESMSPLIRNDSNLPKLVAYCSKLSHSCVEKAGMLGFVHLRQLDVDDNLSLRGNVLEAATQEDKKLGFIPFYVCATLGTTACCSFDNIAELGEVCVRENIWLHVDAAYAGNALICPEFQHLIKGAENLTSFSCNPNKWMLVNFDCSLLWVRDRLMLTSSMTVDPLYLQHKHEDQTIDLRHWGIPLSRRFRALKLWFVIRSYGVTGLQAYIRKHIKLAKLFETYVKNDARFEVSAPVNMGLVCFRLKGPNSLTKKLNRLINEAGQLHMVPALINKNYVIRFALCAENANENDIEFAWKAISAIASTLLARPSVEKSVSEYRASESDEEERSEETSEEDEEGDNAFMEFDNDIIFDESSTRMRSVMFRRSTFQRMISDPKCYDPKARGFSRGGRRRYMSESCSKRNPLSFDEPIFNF
# Test: dopamine formation measured by ELISA kit
# Type: biochemical
# Conditions: 30 mM L-Dopa; 0.4 mM PLP; PBS pH 7.4; 37 °C; 1 h
smiles,measurement,value
N[C@@H](Cc1ccc(O)c(O)c1)C(=O)O [L-Dopa],dopamine formation measured by ELISA kit,there was detectable dopamine in the reactions with the addition of rCfDDC
